Laboratory results: patent publication US6599905B2, “Pyrazine compounds” (SmithKline Beecham Corporation, priority 1997, dated 2003)

With `O=C(Nc1cnc(-c2cc(Cl)cc(Cl)c2Cl)c(NC(=O)C2CC2)n1)C1CC1` [Example 9, 2,6-Dicyclopropylcarbonylamino-3-(2,3,5-trichlorophenyl) pyrazine] the melting point was 212 to 214 °C. Work on `Nc1nc(NC(=O)C2CC2)cnc1-c1cc(Cl)cc(Cl)c1Cl` [Example 9, 2-Amino-6-cyclopropylcarbonylamino-3-(2,3,5-trichlorophenyl)pyrazine] yielded a melting point of 240 to 244 °C. `CC(C)C(=O)Nc1cnc(-c2cc(Cl)cc(Cl)c2Cl)c(NC(=O)C(C)C)n1` [Example 10, 2,6-Diisopropylcarbonylamino-3-(2,3,5-trichlorophenyl) pyrazine] gave a melting point of 227 to 229 °C. `N#Cc1nc(-c2cc(Cl)cc(Cl)c2Cl)c(N)nc1N` [Example 17, 5-Cyano-2,6-Diamino-3-(2,3,5-trichlorophenyl)pyrazine] gave a melting point of 277 to 279 °C.
